Here are results for 13 compounds from the Deep4Chem optical property database.

SMILES strings stand for the structures.

The nature of this series: solvent given as SMILES.

With `Cc1cc(C)c(B(c2c(C)cc(C)cc2C)c2cc3ccc4ccccc4c3c3c2ccc2ccccc23)c(C)c1`, the emission maximum by setting is: (in C1CCCCC1) 436 nm; (in C1CCOC1) 446 nm; (in CC#N) 449 nm; (in ClC(Cl)Cl) 443 nm; (in c1ccccc1) 444 nm.
On to `CC1(C)c2ccccc2N(c2ccc3nc4c5ccc(N6c7ccccc7C(C)(C)c7ccccc76)cc5c5cc(N6c7ccccc7C(C)(C)c7ccccc76)ccc5c4nc3c2)c2ccccc21`, for which the emission maximum runs as follows: (in Cc1ccccc1) 605 nm; (in c1cc(-c2cccc(-n3c4ccccc4c4ccccc43)c2)cc(-n2c3ccccc3c3ccccc32)c1) 590 nm.
`CCCCOC(=O)c1cc(Oc2ccc(OC)cc2)c2c3c(Cl)cc4c5c(cc(Cl)c(c6c(Oc7ccc(OC)cc7)cc(C(=O)OCCCC)c1c26)c53)C(=O)N(c1c(C(C)C)cccc1C(C)C)C4=O` came in with an emission maximum (in Cc1ccccc1) of 599 nm.
Turning to `CCCCCCCCCn1c(-c2cc(-c3nc4ccc(C)cc4n3CCCCCCCCC)cc(-c3nc4ccc(C)cc4n3CCCCCCCCC)c2)nc2ccc(C)cc21`, the emission maximum (in C1CCOC1) came to 371 nm.
`c1ccc(-n2nc(-c3ccc(N4c5ccccc5Sc5ccccc54)cc3)nc2-c2ccccn2)cc1` had an emission maximum (in ClCCl) of 468 nm.
As to `CCC1(CC)c2cc(/C=C/c3ccc(N(c4ccccc4)c4ccccc4)cc3)ccc2-c2ccc(/C=C/c3ccc(N(c4ccccc4)c4ccccc4)cc3)cc21`, the emission maximum (in Cc1ccccc1) was 451 nm.
Consider `CN1/C(=C/C=C(/C=C/c2sc3ccccc3[n+]2C)c2cc(F)cc(F)c2)Sc2ccccc21`, for which the emission maximum runs as follows: (in CCO) 670 nm; (in CO) 668 nm; (in CS(C)=O) 675 nm; (in O) 671 nm.
For `Cc1c2oc3c(C)c(N)cc(C(=O)NC4OC(=O)C(C(C)C)N(C)C(=O)CN(C)C(=O)C5CCCN5C(=O)C(C(C)C)NC4=O)c3nc-2c(C(=O)NC2OC(=O)C(C(C)C)N(C)C(=O)CN(C)C(=O)C3CCCN3C(=O)C(C(C)C)NC2=O)c(N)c1=O` (stereo not drawn), the emission maximum by setting is: (in C1CCOC1) 608.36 nm; (in CC#N) 634.41 nm; (in CC(=O)O) 638.86 nm; (in CC(C)=O) 609.72 nm; (in CCCCO) 669.51 nm; (in CCCCOC(C)=O) 624.05 nm. Also, the emission maximum was determined as 658.62 nm (in CCCO); 597.77 nm (in CCN(CC)CC); 669 nm (in CCO); 598.75 nm (in CCOC(C)=O); 640.78 nm (in CN(C)C=O); 673.84 nm (in CO). For the same compound, the emission maximum is 637.01 nm (in CS(C)=O); 613.07 nm (in Cc1ccccc1); 620.11 nm (in ClC(Cl)Cl); 609.65 nm (in ClCCCl); 674.17 nm (in O); 623.24 nm (in O=[N+]([O-])c1ccccc1). Moreover, the emission maximum by setting is: (in c1ccccc1) 621.25 nm; (in c1ccncc1) 648.07 nm.
`Fc1ccc2sc3nc(-c4ccccc4)sc3c2c1` yielded an emission maximum (in CS(C)=O) of 409 nm.
Take `CC(C)(C)C1Nc2ccccc2C(=O)N1c1ccccc1` (stereo not drawn): the emission maximum is given as 417 nm (in CC#N); 388 nm (in CCCCCCCCCCCCCCCC); 449 nm (in CO); 409 nm (in ClC(Cl)Cl); 400 nm (in c1ccccc1).
In turn, `COc1ccc(-c2nc3c([nH]2)C2=CC(=O)S[C@]2(C)[C@@]2(C)SC(=O)C=C32)cc1` displayed an emission maximum (in CC#N) of 533 nm.
On to `OCCSc1cccc2[n+]1[B-](F)(F)n1c(c3cccc4cccc1c43)=N2`, for which the emission maximum was found to be 505 nm (in C1CCOC1); 502 nm (in CC#N); 497 nm (in CCCCCC); 505 nm (in Cc1ccccc1); 501 nm (in ClCCl).
In the case of `CCCCN1C(=O)C2=C(c3ccc(-c4ccc5c(c4)C(C)(C)c4ccccc4-5)cc3)[N-]C(=O)C2=C1c1ccc(-c2ccc3c(c2)C(C)(C)c2ccccc2-3)cc1`, where the note is “in ClCCl”, the emission maximum is 635 nm.
